Ends that are not written are not given here.
Legend:
isolated spinal cords = test: slow ventral root potential (sVRP) of isolated spinal cord, naloxone-precipitated morphine withdrawal hyperresponsiveness; format: cell-based, rat
Source text: The slow ventral root potential (sVRP) is an electrophysiolgical measurement of nociceptive-related response in the spinal cord lasting approximately 40 seconds (Yanagisawa et al., Eur. J. Pharmacol., 106:231-239 (1984); Akagi H. et al., British J. Pharmacol., 84:663-673 (1985); Otsuka M. et al., J. Physiol., 395:255-270 (1988)). It is evoked by stimulation of a lumbar dorsal root at an intensity sufficient to activate small diameter afferents that transmit nociceptive (painful) stimuli from the periphery to the spinal cord (Lozier A. P. et al., J. Neurophysiol., 74:1001-1009 (1995)). […] Thus, the sVRP is related to pain, and its exaggeration following naloxone is a manifestation of withdrawal which translates to an increase in pain sensation in vivo.
Spinal cords from 4-7 day old rats (Charles River Laboratories) were removed and arranged for electrophysiological recording of the slow ventral root potentials (sVRP) (Woodley S. J., et al., Brain Res., 559:17-21 (1991). Briefly, pups were decapitated under halothane anesthesia and the spinal cord removed to an oxygenated artificial cerebrospinal fluid solution. A suction stimulating electrode was placed on a lumbar dorsal root and a suction recording electrode on the corresponding ipsilateral ventral root. Square wave stimuli 0.2 ms in duration were administered at a constant frequency of 1/50 seconds throughout the experiment. Test agents were applied and the responses were recorded, digitized, and area under the curve measured.
After a baseline reading of the sVRP, morphine (200 nM) was applied to the isolated spinal cords. The sVRP was again recorded to characterize the response to morphine. Naloxone (200 nM) was then applied and the sVRPs recorded.
FIGS. 2A-2D show the results after application of non-specific PKC antagonist, GF109203X (1.2 μM), and of an inhibitor specific to Ca++-dependent PKC isoforms, Go6976 (1 μM).
FIGS. 3A-3B show the results after application of the εPCK antagonist (εV1-2; SEQ ID NO:1, 2 nM), conjugated to a peptide carrier (Tat; SEQ ID NO:3) and the Tat peptide alone (2 nM; SEQ ID NO:3). FIGS. 3C-3D show the results after application of γPKC (γV5-3; SEQ ID NO:2, 4 nM) conjugated to a peptide carrier (Tat; SEQ ID NO:3) and of the Tat peptide alone (4 nm; SEQ ID NO:3).

postnatal day 7 rats = test: natural morphine withdrawal, mechanical allodynia and thermal hyperalgesia in vivo; parameters: species or system rat; conditions: 10 μM intrathecally 2.5 hours after morphine 1 mg/kg; p<0.05 versus Tat carrier or saline
Experimental: Another study was performed to investigate the roles of PKC isozymes in natural withdrawal, which more closely resembles the clinical setting in addictive sequela. In this study, postnatal day 7 rats were given a single injection of morphine (1 mg/kg) and allowed to undergo natural withdrawal, i.e., naloxone was not administered to precipitate withdrawal. The treatment protocol is shown in FIG. 6A, where 2.5 hours after morphine delivery, εV1-2 or γV5-3 peptide inhibitors were administered intrathecally. Mechanical allodynia and thermal hyperalgesia were evaluated at hourly intervals according to the procedure described in Example 2.
To measure mechanical thresholds, rats were placed on an elevated wire mesh (2 mm openings). Von Frey hairs (Stoelting Co., WoodDale, Ill., USA) were used to elicit a cutaneous flexion withdrawal response as described by Fitzgerald et al. (Fitzgerald M., et al., PAIN […] INFANTS, CHILDREN AND ADOLESCENTS; Schetchter and Yaster, Eds., pp 11-32, Williams and Williams (Baltimore, Md.) (1993). Von Frey hairs of increasing intensity were applied three times to the plantar surface of the left hind paw until a paw withdrawal was elicited. The lowest intensity Von Frey hair required to produce a withdrawal reflex was recorded as the response threshold to a low-intensity mechanical stimulus. […]

[1] = tested on: N-methyl-D-aspartate (NMDA) receptor currents; test: alcohol withdrawal hyperresponsiveness of NMDA-evoked currents in lumbar spinal cord slice motor neurons; format: cell-based, rat
Source text: Spinal cords were taken from young rats, and slices of these cords were made and placed in artificial cerebrospinal fluid for patch clamp electrophysiological analysis, to characterize the ability of γPKC peptides to mediate alcohol withdrawal hyperresponsiveness of N-methyl-D-aspartate (NMDA) receptor currents. FIG. 7A is a schematic diagram of the technique, where a lumbar spinal cord slice 10 is shown. The placement of a recording electrode 12 and a pipette 14 for application of NMDA relative to a motor neuron 16 is illustrated.
Sprague-Dawley rats at postnatal day 7-10 were anesthetized with halothane, decapitated, and the spinal cords were quickly removed. Slices […] thick were sectioned from the lumbar region. Whole cell voltage clamp recordings were made from visually-identified motor neurons using infrared video microscopy, a 60× water immersion lens, and a MultiClamp 700A patch clamp amplifier. Cells were held at a holding potential of −60 mV in artificial cerebrospinal fluid (ACSF) containing bicuculline methiodide ([…]), strychnine ([…]), and tetrodotoxin ([…]). Postsynaptic currents were evoked by direct pressure application of 2 mM N-methyl-D-aspartate (NMDA) from a pipette positioned near the recorded cell at 1-2 min intervals, as illustrated in FIG. 7A. The area of evoked currents during and following 100 mM ethanol (EtOH) application was measured and normalized to the average baseline current area during the 10 minutes preceding EtOH application. Data are expressed as mean +/−SEM: Statistical significance was determined by one-way ANOVA followed by Dunn's or Tukey's multiple comparison test with significance set at p<0.05.

[2] = tested on: 7 day old and 21 day old rats; test: ethanol withdrawal mechanical allodynia testing (von Frey threshold withdrawal force); format: in vivo, rat
[3] = tested on: 7 day old and 21 day old rats; test: ethanol withdrawal thermal hyperalgesia testing (paw withdrawal latency); format: in vivo, rat; conditions: 7 day old rats; intrathecally 4 hours after 4 g/kg 15% EtOH

RLVLAS (also: Tat peptide conjugate; listed as Homo sapiens) [γV5-3]
effect on sVRP of inhibitor alone (isolated spinal cords; absence of morphine): did not significantly altered the sVRP
block of naloxone-precipitated withdrawal hyperresponsiveness of sVRP (isolated spinal cords; morphine 200 nM then naloxone 200 nM, GF109203X 1.2 μM, Go6976 1 μM, εV1-2 2 nM, γV5-3 4 nM, Tat 2-4 nM): reduced withdrawal hyperresponsiveness, but not to a significantly greater amount than the Tat carrier vehicle alone
mechanical allodynia and thermal hyperalgesia during natural withdrawal from morphine (postnatal day 7 rats): attenuated mechanical allodynia and thermal hyperalgesia
block of ethanol withdrawal hyperresponsiveness of NMDA-evoked currents ([1]; 2 nM peptide, ethanol 100 mM 15 minutes then wash): did not completely block withdrawal hyperresponsiveness
block of ethanol withdrawal hyperresponsiveness of NMDA-evoked currents ([1]; 5-10 nM peptide, ethanol 100 mM then wash): effectively blocked ethanol withdrawal hyperresponsiveness
mechanical allodynia, threshold withdrawal force ([2]; 7 day old rats, 5 μL of 20 μM intrathecally 5 hours after 4 g/kg 15% EtOH i.p., 6 and 7 hour post-EtOH, versus Tat carrier): attenuated mechanical allodynia
mechanical allodynia, threshold withdrawal response ([2]; 21 day old rats, 10 μL of 20 μM intrathecally 4 hours after 4 g/kg 15% EtOH i.p.): prevented a decrease in threshold withdrawal response
thermal hyperalgesia, paw withdrawal latency [3]: completely prevented thermal hyperalgesia
